The values below come from publication PMC5008373, “Pantoprazole, an FDA-approved proton-pump inhibitor, suppresses colorectal cancer growth by targeting T-cell-originated protein kinase” (Oncotarget, 2016).

Structures are written as SMILES.

Common to all, as to assay type: binding
Test [1] deals with T1, T-cell-originated protein kinase (TOPK) (Homo sapiens, UniProt Q96KB5).
T1 construct: gene PBK
T1 sequence (Q96KB5 1-322): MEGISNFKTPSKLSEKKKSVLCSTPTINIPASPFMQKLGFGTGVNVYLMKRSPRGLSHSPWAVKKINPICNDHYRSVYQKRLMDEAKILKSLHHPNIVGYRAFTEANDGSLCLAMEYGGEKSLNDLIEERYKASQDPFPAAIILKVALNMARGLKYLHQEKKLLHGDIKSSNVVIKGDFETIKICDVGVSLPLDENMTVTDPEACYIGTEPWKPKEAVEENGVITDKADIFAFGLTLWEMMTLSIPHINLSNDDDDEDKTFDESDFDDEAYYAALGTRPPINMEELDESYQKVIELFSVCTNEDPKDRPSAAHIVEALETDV
Briefly: biochemical.

In test [2] the target is T1, T-cell-originated protein kinase (TOPK). Put plainly: microscale thermophoresis with labeled recombinant TOPK (reference inhibitor). The following applies: read-out: Dissociation constant with TOPK / Kd^b.
Test [3] has the same target. Briefly: microscale thermophoresis with labeled recombinant TOPK; also in vitro kinase assay (histone H3 phosphorylation). The following applies: read-out: Dissociation constant with TOPK / Kd^b. In general terms: MST reads how a fluorescent partner responds to local heating, with and without ligand.
The mark [4] stands for this setting: read-out: Dissociation constant with TOPK / Kd^b.

As to `NC(CO)C(=O)NNCc1ccc(O)c(O)c1O` (centres unmarked) [Benserazide], the Kd in test [1] (setting [4]) was 477 ± 19.9 µM.
With `N#Cc1c2nc3ccccc3nc2n2ccc(NC(=O)c3cccs3)cc12` [HI-TOPK-032], in test [2], the Kd is 327 ± 62.7 µM.
Regarding `COc1ccnc(C[S+]([O-])c2nc3ccc(OC(F)F)cc3[nH]2)c1OC` (centres unmarked) [Pantoprazole], the Kd in test [3] turned out to be 24.2 ± 2.3 µM.
Regarding `CC(=O)Nc1ccc(OCC(O)CNC(C)C)cc1` (centres unmarked) [Practolol], in test [1] (setting [4]), the Kd was found to be 226 ± 29.5 µM.
Consider `O=C(O)c1cc(/N=N/c2ccc(S(=O)(=O)Nc3ccccn3)cc2)ccc1O` [Sulfasalazine], for which, in test [1], the Kd turned out to be 339 ± 7.7 µM.
